Values of other authors as cited in patent publication US6541424B2, “Manufacture and use of a herbicide formulation” (Helena Chemical Company, priority 2000, dated 2003).

O=C(O)CNCP(=O)(O)O [Glyphosate]
solubility in water: approximately 1.2%
